In patent publication US20250186436A1 (4E Therapeutics, Inc., priority 2021, published 2025):
Read-outs that look alike come from different tables or passages of the source.

Columns and labels:
[1] = system: eIF4E phosphorylation at Serine 209 in HEK 293 cells; test: eIF4E phosphorylation in HEK 293 cells (phospho-specific antibody, fluorescent plate reader); assay type: cell-based; conditions: Homo sapiens, HEK293; eIF4E phosphorylation at Serine 209, 2 hours exposure; read-out: HEK 293 cell;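 note: Well-level p-eIF4E immunofluorescence normalized to DAPI signal, expressed as percent eIF4E phosphorylation, with IC50 derived from concentration-response curves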
[2] = target: T1, recombinant full-length human kinase MNK1 (Homo sapiens, UniProt Q9BUB5); test: MNK1 radiometric kinase activity assay; assay type: biochemical
T1 construct: the recombinant full-length human kinase MNK1; made in house; host or cells: insect cells
T1 sequence (Q9BUB5 whole entry): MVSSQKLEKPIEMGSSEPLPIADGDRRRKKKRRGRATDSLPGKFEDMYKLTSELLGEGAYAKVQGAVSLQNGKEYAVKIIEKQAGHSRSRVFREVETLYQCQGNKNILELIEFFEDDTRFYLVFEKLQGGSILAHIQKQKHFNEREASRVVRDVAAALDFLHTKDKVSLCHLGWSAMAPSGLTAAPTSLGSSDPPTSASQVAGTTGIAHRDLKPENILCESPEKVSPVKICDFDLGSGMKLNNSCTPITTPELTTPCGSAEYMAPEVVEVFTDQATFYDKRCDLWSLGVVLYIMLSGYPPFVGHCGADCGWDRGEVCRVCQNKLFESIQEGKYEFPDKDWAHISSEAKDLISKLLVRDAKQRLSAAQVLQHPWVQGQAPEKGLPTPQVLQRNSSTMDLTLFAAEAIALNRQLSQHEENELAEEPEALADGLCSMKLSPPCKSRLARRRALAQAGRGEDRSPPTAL

[3] = target: T2, recombinant full length human kinase MNK2 (Homo sapiens, UniProt Q9HBH9); test: MNK2 radiometric kinase activity assay; assay type: biochemical
T2 construct: the recombinant full length human kinase MNK2; made in house; host or cells: insect cells
T2 sequence (Q9HBH9 whole entry): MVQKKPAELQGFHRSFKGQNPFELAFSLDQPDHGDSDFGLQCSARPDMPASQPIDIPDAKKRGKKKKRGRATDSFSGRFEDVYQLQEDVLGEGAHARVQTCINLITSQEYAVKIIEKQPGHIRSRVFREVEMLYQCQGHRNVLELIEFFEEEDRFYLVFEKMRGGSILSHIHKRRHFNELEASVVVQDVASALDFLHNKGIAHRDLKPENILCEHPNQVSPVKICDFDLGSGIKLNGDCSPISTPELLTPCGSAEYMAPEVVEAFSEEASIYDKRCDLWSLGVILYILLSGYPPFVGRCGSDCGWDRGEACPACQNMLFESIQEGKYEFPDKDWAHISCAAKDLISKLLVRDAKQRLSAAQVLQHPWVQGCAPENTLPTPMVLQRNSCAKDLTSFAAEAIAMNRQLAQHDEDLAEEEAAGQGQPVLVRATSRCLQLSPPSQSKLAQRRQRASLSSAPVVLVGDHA

P-gp (human MDR1, ABCB1) = test: MDCK-MDR1 permeability (blood-brain barrier permeability); conditions: dog
[4] = Liver microsome stability; conditions: mouse, liver microsomes
[5] = radiometric activity assay, read-out: MNK1
[6] = radiometric activity assay, read-out: MNK2

Row | Compound | IC50 [1] | IC50 [2, 5] | IC50 [3, 6] | IC50 [2] | IC50 [3] | Papp A→B at 5 uM (P-gp (human MDR1, ABCB1)) | Papp B→A at 5 uM (P-gp (human MDR1, ABCB1)) | efflux ratio at 5 uM (P-gp (human MDR1, ABCB1)) | half-life [4]
1 | Cc1cc(Nc2cc(N)ncn2)c(=O)n2c1C(=O)NC21CC2(CCC2)C1 [4ET-01-009, 6″-((6-aminopyrimidin-4-yl)amino)-8″-methyl-2″H-dispiro[cyclobutane-1,1′-cyclobutane-3′,3″-imidazo[1,5-a]pyridine]-1″,5″-dione] | 3.6 nM | 13.1 nM | 0.8 nM |  |  |  |  |  | 
2 | Cc1cc(Nc2cc(N)ncn2)c(=O)n2c1C(=O)NC21CCC2(CC1)CN2 (stereo not drawn) [4ET-01-012, 6″-((6-aminopyrimidin-4-yl)amino)-8″-methyl-2″H-dispiro[aziridine-2,1′-cyclohexane-4′,3″-imidazo[1,5-a]pyridine]-1″,5″-dione] | 57.1 nM |  |  | 27.9 nM | 3 nM |  |  |  | 
3 | Cc1cc(Nc2cc(N)ncn2)c(=O)n2c1C(=O)NC21CCC2(CCCC2)C1 (stereo not drawn) [4ET-01-016, 6″-((6-aminopyrimidin-4-yl)amino)-8″-methyl-2″H-dispiro[cyclopentane-1,1′-cyclopentane-3′,3″-imidazo[1,5-a]pyridine]-1″,5″-dione] | 8.9 nM | 33 nM | 3.5 nM |  |  | 48.6 ×10⁻⁶ cm/s | 46.5 ×10⁻⁶ cm/s | 1 | 11.3 h
4 | Cc1cc(Nc2cc(N)ncn2)c(=O)n2c1C(=O)NC21CC2(CC(F)(F)C2)C1 [4ET-01-017, 6″-((6-aminopyrimidin-4-yl)amino)-3,3-difluoro-8″-methyl-2″H-dispiro[cyclobutane-1,1′-cyclobutane-3′,3″-imidazo[1,5-a]pyridine]-1″,5″-dione] | 41.6 nM | 69.2 nM | 7.9 nM |  |  | 29 ×10⁻⁶ cm/s | 47.2 ×10⁻⁶ cm/s | 1.6 | 4.35 h
5 | Cc1cc(Nc2cc(N)ncn2)c(=O)n2c1C(=O)NC21CC2(CCCC2)C1 [4ET-01-018, 6″-((6-aminopyrimidin-4-yl)amino)-8″-methyl-2″H-dispiro[cyclopentane-1,1′-cyclobutane-3′,3″-imidazo[1,5-a]pyridine]-1″,5″-dione] | 4.1 nM | 41.8 nM | 4.1 nM |  |  | 50.8 ×10⁻⁶ cm/s | 66.7 ×10⁻⁶ cm/s | 1.3 | 0.853 h
6 | Cc1cc(Nc2cc(N)ncn2)c(=O)n2c1C(=O)NC21CCC2(CCC2)CC1 [4ET-01-019, 6″-((6-aminopyrimidin-4-yl)amino)-8″-methyl-2″H-dispiro[cyclobutane-1,1′-cyclohexane-4′,3″-imidazo[1,5-a]pyridine]-1″,5″-dione] | 4.9 nM | 43.9 nM | 4.2 nM |  |  | 43.9 ×10⁻⁶ cm/s | 71.9 ×10⁻⁶ cm/s | 1.6 | 4.2 h
7 | Cc1cc(Nc2cc(N)ncn2)c(=O)n2c1C(=O)NC21CC2(CCCCC2)C1 [4ET-01-020, 6″-((6-aminopyrimidin-4-yl)amino)-8″-methyl-2″H-dispiro[cyclohexane-1,1′-cyclobutane-3′,3″-imidazo[1,5-a]pyridine]-1″,5″-dione] | 4.3 nM | 36 nM | 3 nM |  |  | 46.7 ×10⁻⁶ cm/s | 70.7 ×10⁻⁶ cm/s | 1.5 | 0.793 h
8 | Cc1cc(Nc2cc(N)ncn2)c(=O)n2c1C(=O)NC21CCCC2(CC2)C1 (stereo not drawn) [4ET-01-042, 6″-((6-Aminopyrimidin-4-yl)amino)-8″-methyl-2″H-dispiro[cyclopropane-1,1′-cyclohexane-3′,3″-imidazo[1,5-a]pyridine]-1″,5″-dione] | 0.8 nM | 16.5 nM | 2 nM |  |  | 50.4 ×10⁻⁶ cm/s | 68.9 ×10⁻⁶ cm/s | 1.4 | 1.88 h
9 | Cc1cc(Nc2cc(NC(=O)C3CC3)ncn2)c(=O)n2c1C(=O)NC21CC2(CCC2)C1 [4ET-03-043, N-(6-((8″-methyl-1″,5″-dioxo-1″,5″-dihydro-2″H-dispiro[cyclobutane-1,1′-cyclobutane-3′,3″-imidazo[1,5-a]pyridin]-6″-yl)amino)pyrimidin-4-yl)cyclopropanecarboxamide] | 0.9 nM | 44.9 nM | 1.7 nM |  |  | 27.4 ×10⁻⁶ cm/s | 56.3 ×10⁻⁶ cm/s | 2.1 | 3.35 h
10 | CCOC(=O)C1CC12CCC1(CC2)NC(=O)c2c(C)cc(Nc3cc(NC(=O)C4CC4)ncn3)c(=O)n21 (stereo not drawn) [4ET-03-045, ethyl 6″-((6-(cyclopropanecarboxamido)pyrimidin-4-yl)amino)-8″-methyl-1″,5″-dioxo-1″,5″-dihydro-2″H-dispiro [cyclopropane-1,1′-cyclohexane-4′,3″-imidazo[1,5-a]pyridine]-2-carboxylate] | 17.7 nM | 131 nM | 12.1 nM |  |  |  |  |  | 
11 | Cc1cc(Nc2cc(NC(=O)C3CC3)ncn2)c(=O)n2c1C(=O)NC21CCC2(CC1)CN2C(=O)OCc1ccccc1 (stereo not drawn) [4ET-03-046] | 6.4 nM | 49.8 nM | 1.7 nM |  |  |  |  |  | 
12 | Cc1cc(Nc2cc(NC(=O)C3CC3)ncn2)c(=O)n2c1C(=O)NC21CCC2(CC1)CN(C(=O)OC(C)(C)C)C2 [4ET-03-048, tert-butyl 6″-((6-(cyclopropanecarboxamido)pyrimidin-4-yl)amino)-8″-methyl-1″,5″-dioxo-1″,5″-dihydro-2″H-dispiro[azetidine-3,1′-cyclohexane-4′,3″-imidazo[1,5-a]pyridine]-1-carboxylate] | 6.1 nM | 145 nM | 5.2 nM |  |  |  |  |  | 
13 | Cc1cc(Nc2cc(NC(=O)C3CC3)ncn2)c(=O)n2c1C(=O)NC21CCC2(CC1)CNC2 [4ET-03-049, N-(6-((8″-methyl-1″,5″-dioxo-1″,5″-dihydro-2″H-dispiro[azetidine-3,1′-cyclohexane-4′,3″-imidazo1[1,5-a]pyridin]-6″-yl)amino)pyrimidin-4-yl)cyclopropanecarboxamide] | 110 nM | 80 nM | 2.8 nM |  |  | 0.3 ×10⁻⁶ cm/s | 0.7 ×10⁻⁶ cm/s | 2.1 | 2.43 h
14 | Cc1cc(Nc2cc(NC(=O)C3(CN)CC3)ncn2)c(=O)n2c1C(=O)NC21CCC2(CC2)CC1 [4ET-03-055, 1-(aminomethyl)-N-(6-((8″-methyl-1″,5″-dioxo-1″,5″-dihydro-2″H-dispiro[cyclopropane-1,1′-cyclohexane-4′,3″-imidazo[1,5-a]pyridin]-6″-yl)amino)pyrimidin-4-yl)cyclopropane-1-carboxamide] | 44 nM | 127 nM | 29.5 nM |  |  | 3 ×10⁻⁶ cm/s | 57.6 ×10⁻⁶ cm/s | 19 | 
15 | Cc1cc(Nc2cc(NC(=O)[C@H]3[C@@H]4CNC[C@@H]43)ncn2)c(=O)n2c1C(=O)NC21CCC2(CC2)CC1 [4ET-03-056, (1R,5S,6r)-N-(6-((8″-methyl-1″,5″-dioxo-1″,5″-dihydro-2″H-dispiro[cyclopropane-1,1′-cyclohexane-4′,3″-imidazo[1,5-a]pyridin]-638-yl)amino)pyrimidin-4-yl)-3-azabicyclo[3.1.0]hexane-6-carboxamide] | 11.1 nM | 51.8 nM | 3.5 nM |  |  | 0.5 ×10⁻⁶ cm/s | 15.9 ×10⁻⁶ cm/s | 31.8 | 2.95 h
16 | Cc1cc(Nc2cc(NC(=O)C3CC4(C3)CN(C)C4)ncn2)c(=O)n2c1C(=O)NC21CCC2(CC2)CC1 [4ET-03-060, 2-methyl-N-(6-((8″-methyl-1″,5″-dioxo-1″,5″-dihydro-2″H-dispiro[cyclopropane-1,1′-cyclohexane-4′,3″-imidazo[1,5-a]pyridin]-638-yl)amino)pyrimidin-4-yl)-2-azaspiro[3.3]heptane-6-carboxamide] | 6.5 nM | 31 nM | 1.7 nM |  |  |  |  |  | 
17 | Cc1cc(Nc2cc(NC(=O)[C@H]3[C@@H]4CN(C)C[C@@H]43)ncn2)c(=O)n2c1C(=O)NC21CCC2(CC2)CC1 [4ET-03-061, (1R,5S,6r)-3-methyl-N-(6-((8″-methyl-1″,5″-dioxo-1″,5″-dihydro-2″H-dispiro[cyclopropane-1,1′-cyclohexane-4′,3″-imidazo[1,5-a]pyridin]-638-yl)amino)pyrimidin-4-yl)-3-azabicyclo[3.1.0]hexane-6-carboxamide] | 5.2 nM | 36.2 nM | 1.7 nM |  |  |  |  |  | 
18 | Cc1cc(Nc2cc(N)ncn2)c(=O)n2c1C(=O)NC21CCC2(CC1)CC2(F)F (stereo not drawn) [4ET-03-068, 6″-((6-aminopyrimidin-4-yl)amino)-2,2-difluoro-8″-methyl-2″H-dispiro[cyclopropane-1,1′-cyclohexane-4′,3″-imidazo[1,5-a]pyridine]-1″,5″-dione] | 3.4 nM | 25.3 nM | 1.5 nM |  |  | 18.7 ×10⁻⁶ cm/s | 71 ×10⁻⁶ cm/s | 3.8 | 4.93 h
19 | Cc1cc(Nc2cc(NC(=O)C3(CNS(C)(=O)=O)CC3)ncn2)c(=O)n2c1C(=O)NC21CCC2(CC2)CC1 [4ET-03-076, N-(6-((8″-methyl-1″,5″-dioxo-1″,5″-dihydro-2″H-dispiro[cyclopropane-1,1′-cyclohexane-4′,3″-imidazo[1,5-a]pyridin]-638-yl)amino)pyrimidin-4-yl)-1-(methylsulfonamidomethyl)cyclopropane-1-carboxamide] |  | 37.5 nM | 12.2 nM |  |  |  |  |  | 
20 | Cc1cc(Nc2cc(NC(=O)C3(CN(C)C)CC3)ncn2)c(=O)n2c1C(=O)NC21CCC2(CC2)CC1 [4ET-03-081, 1-((dimethylamino)methyl)-N-(6-((8″-methyl-1″,5″-dioxo-1″,5″-dihydro-2″H-dispiro[cyclopropane-1,1′-cyclohexane-4′,3″-imidazo[1,5-a]pyridin]-6″-yl)amino)pyrimidin-4-yl)cyclopropane-1-carboxamide] |  | 30.3 nM | 10.1 nM |  |  | 17.1 ×10⁻⁶ cm/s | 23.4 ×10⁻⁶ cm/s | 1.4 | 1.24 h
